These results are taken from US20030143251A1, “Skin preparations for external use” (priority 2000, published 2003).

The structures appear in SMILES notation. Like-named read-outs stand apart in the source and are kept apart here.

The nature of series [1]: Stability (decomposition rate) in acidic, neutral and alkaline aqueous solutions. It counts as physicochemical.
The subject of series [2] is mushroom-derived tyrosinase. The conditions noted are these: cited from earlier work.
Series [3] is described as follows: Maintenance in mouse skin extract fluid (residual rate by HPLC). The format is in vitro ADME. The note with it: skin extract fluid 1:1 with 0.1M solution, pH 7.0, 37° C. The method, then: The skin samples obtained in Evaluation example 5 were weighed, and 2.6 g was added to sodium citrate-phosphate buffer solution (5.2 ml, pH 7.0) and homogenized. The homogenate obtained was used as skin extract fluid.
Each sample was tested in triplicate (n=3) in both groups, and mean residual rates were calculated.
HPLC was conducted under the conditions used in Evaluation example 5.

A short description of series [4]: Maintenance on mouse skin samples (residual rate by HPLC). The format is in vitro ADME. The conditions noted are these: for Maintenance 19 hours after starting incubation: 0.5 g and 2.0 g mouse skin; for Maintenance 19 hours after starting incubation / Residual rate: 0.037M, pH 7.0, 37° C.; for Residual rate: 0.5 g of the skin sample, 40 hours. The method, then:
The back skin was depilated and peeled off after sacrificing mice by cervical dislocation at 24 weeks of age.
Each sample was tested in triplicate (n=3) in all of the 4 groups, and mean residual rates were calculated.
HPLC was conducted under the following conditions:
Solvent: methanol-water (20:80, v/v, adjusted to pH 2.5 using phosphoric acid)

For series [5] the following is noted: reported; cited from earlier work.
Setting [6] is: pH 5.5, aqueous solution, 0.045M, 37° C.
The mark [7] stands for this setting: pH 6.5, aqueous solution, 0.045M, 37° C.
Setting [8] is: pH 7.5, aqueous solution, 0.045M, 37° C.

The term half-life denotes the time needed for the level to fall by half in the phase considered. On to `OCC1OC(Oc2ccc(O)cc2)C(O)C(O)C1O` [α-Arbutin, hydroquinone-α-D-glucopyranoside], for which the half-life at 0.045 M in series [1] (buffer, pH 6.5) is 3200 min; in series [1] (buffer, pH 7.5), 1890 min. The Decomposition rate constant in series [1] (setting [6]) was found to be 0; in series [1] (setting [7]), 0.013; in series [1] (setting [8]), 0.022. Further, in series [2] (Tokkaihei No. 5-932), the “Effect on mushroom-derived tyrosinase activity” value is “promotes, rather than inhibits”. Further, the “Inhibition of mushroom-derived tyrosinase” value in series [2] (Tokkaihei No. 6-153976) is given as “effective in inhibiting mushroom-derived tyrosinase”. Further, the Tyrosinase inhibiting activity result in series [2] (mushroom-derived tyrosinase, Biochem. Biotech. Biochem., 59, 143 (1995)) was “does not show tyrosinase inhibiting activity”. Also, in series [3], the “Maintenance 4 hours after starting incubation” value is reported as “remained virtually intact”. The “Residual rate compared with the β-arbutin group” value in series [3] (20 hours) is listed as “more than twice higher”. In addition, the “Maintenance 19 hours after starting incubation” value in series [4] is reported as “remained virtually intact”. In series [4], this compound had a Residual rate of 87.5%. Besides, the “Residual rate, times larger than that of β-arbutin” value in series [4] (2.0 g of the skin sample, 40 hours after incubation) is listed as “about 10 times”.
`Oc1ccc(O)cc1` [Hydroquinone, hydroquinone]: the half-life at 0.045 M in series [1] (aqueous solution, pH 5.5, over pH 5.5 to 7.5, 37° C., read-out: Half-life in alkaline and acidic regions) was 36 to 648 min; in series [1] (aqueous solution, pH 5.5, pH 5.5, aqueous solution, 0.045M, 37° C., α-arbutin determined after 69 hrs, read-out: Half-life (converted)), 648 min; in series [1] (aqueous solution, pH 6.5, pH 6.5, aqueous solution, 0.045M, 37° C., read-out: Half-life (converted)), 48 min; in series [1] (aqueous solution, pH 7.5, pH 7.5, aqueous solution, 0.045M, 37° C., read-out: Half-life (converted)) it was 36 min. In addition, the Decomposition rate constant stood at 0.064 in series [1] (setting [6]), 0.903 in series [1] (setting [7]) and 1.117 in series [1] (setting [8]). For the same compound, the “Cytotoxicity, times more cytotoxic than β-arbutin” value in series [5] was “about 400 times”.
Turning to `OC[C@H]1O[C@@H](Oc2ccc(O)cc2)[C@H](O)[C@@H](O)[C@@H]1O` [β-Arbutin, hydroquinone-β-glucopyranoside, reference compound], the “Maintenance 4 hours after starting incubation” value in series [3] is reported as “remained virtually intact”. For the same compound, in series [4], the “Maintenance 19 hours after starting incubation” value is reported as “remained virtually intact” and the Residual rate came out at 0%.
